For assay [1], the target named is Ribosomal protein S6 kinase alpha-5 (Homo sapiens, UniProt O75582).
Assay [2] deals with Mitogen-activated protein kinase 3 (Homo sapiens, UniProt P27361).
Another assay has as its target T1, Ephrin type-B receptor 4 (Homo sapiens, UniProt P54760).
T1 sequence (P54760 whole entry): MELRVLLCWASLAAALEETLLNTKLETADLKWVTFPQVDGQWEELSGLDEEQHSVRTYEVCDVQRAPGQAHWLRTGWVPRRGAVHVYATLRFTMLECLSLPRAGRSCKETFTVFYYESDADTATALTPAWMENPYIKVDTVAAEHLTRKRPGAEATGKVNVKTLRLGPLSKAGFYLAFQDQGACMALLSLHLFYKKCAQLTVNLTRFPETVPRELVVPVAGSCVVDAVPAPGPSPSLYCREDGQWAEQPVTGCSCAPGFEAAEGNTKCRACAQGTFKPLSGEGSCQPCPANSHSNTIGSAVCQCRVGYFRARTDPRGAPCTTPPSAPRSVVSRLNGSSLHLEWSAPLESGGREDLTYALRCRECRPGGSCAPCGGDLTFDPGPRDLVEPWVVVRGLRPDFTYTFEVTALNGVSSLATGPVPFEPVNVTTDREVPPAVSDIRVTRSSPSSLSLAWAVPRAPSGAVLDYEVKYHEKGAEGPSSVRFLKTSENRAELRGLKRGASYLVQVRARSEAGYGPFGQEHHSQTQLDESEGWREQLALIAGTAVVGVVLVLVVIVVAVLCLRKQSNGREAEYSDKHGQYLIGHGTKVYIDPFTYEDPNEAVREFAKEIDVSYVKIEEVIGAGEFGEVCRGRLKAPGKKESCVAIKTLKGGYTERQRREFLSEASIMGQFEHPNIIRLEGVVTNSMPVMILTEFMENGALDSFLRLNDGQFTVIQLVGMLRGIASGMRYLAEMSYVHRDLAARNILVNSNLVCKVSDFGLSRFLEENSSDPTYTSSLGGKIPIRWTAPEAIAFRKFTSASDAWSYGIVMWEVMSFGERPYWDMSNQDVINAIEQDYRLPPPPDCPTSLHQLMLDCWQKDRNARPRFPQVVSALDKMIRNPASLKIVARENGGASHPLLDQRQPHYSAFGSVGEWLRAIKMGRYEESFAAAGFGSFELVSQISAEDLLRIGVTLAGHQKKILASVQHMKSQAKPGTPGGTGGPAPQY

Assay [3] has as its target Tyrosine-protein kinase BTK (Homo sapiens, UniProt Q06187).
The target in assay [4] is RAC-gamma serine/threonine-protein kinase (Homo sapiens, UniProt Q9Y243).
RAC-gamma serine/threonine-protein kinase, sequence (Q9Y243 whole entry): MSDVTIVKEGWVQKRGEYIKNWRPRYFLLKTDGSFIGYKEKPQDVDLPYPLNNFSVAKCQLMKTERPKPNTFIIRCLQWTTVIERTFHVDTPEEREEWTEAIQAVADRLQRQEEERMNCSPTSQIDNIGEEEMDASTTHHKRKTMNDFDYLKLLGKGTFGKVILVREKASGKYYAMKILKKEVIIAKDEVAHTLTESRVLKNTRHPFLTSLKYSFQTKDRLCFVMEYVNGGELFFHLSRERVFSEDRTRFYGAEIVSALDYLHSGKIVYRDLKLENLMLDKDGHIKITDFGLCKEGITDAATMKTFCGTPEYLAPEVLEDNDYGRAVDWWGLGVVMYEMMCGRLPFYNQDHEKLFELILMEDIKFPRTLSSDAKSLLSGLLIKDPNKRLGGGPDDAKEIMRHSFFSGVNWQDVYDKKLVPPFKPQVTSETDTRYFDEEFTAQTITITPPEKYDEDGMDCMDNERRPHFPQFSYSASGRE
For assay [5], the target named is Eukaryotic translation initiation factor 2-alpha kinase 1 (Homo sapiens, UniProt Q9BQI3).
Eukaryotic translation initiation factor 2-alpha kinase 1, sequence (Q9BQI3 whole entry): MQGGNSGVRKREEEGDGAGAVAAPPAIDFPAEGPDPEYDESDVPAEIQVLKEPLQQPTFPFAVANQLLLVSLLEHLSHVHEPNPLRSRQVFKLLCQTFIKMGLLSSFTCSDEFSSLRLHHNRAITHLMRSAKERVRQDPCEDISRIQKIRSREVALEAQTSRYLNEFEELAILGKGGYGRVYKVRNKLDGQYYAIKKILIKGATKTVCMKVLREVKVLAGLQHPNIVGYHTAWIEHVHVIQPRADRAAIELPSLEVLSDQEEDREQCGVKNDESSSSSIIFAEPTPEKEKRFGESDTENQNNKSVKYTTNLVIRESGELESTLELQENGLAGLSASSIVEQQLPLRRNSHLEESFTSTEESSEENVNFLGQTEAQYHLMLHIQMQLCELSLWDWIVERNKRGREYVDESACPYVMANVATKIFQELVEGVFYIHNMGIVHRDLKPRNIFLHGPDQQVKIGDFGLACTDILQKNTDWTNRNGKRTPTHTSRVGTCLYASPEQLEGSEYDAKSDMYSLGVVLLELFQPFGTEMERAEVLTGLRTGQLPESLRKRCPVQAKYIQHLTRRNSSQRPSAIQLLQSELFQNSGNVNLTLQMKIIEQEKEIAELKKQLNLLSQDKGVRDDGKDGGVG
The target of assay [6] is T2, Ferrochelatase, mitochondrial (Homo sapiens, UniProt P22830).
T2 sequence (P22830 whole entry): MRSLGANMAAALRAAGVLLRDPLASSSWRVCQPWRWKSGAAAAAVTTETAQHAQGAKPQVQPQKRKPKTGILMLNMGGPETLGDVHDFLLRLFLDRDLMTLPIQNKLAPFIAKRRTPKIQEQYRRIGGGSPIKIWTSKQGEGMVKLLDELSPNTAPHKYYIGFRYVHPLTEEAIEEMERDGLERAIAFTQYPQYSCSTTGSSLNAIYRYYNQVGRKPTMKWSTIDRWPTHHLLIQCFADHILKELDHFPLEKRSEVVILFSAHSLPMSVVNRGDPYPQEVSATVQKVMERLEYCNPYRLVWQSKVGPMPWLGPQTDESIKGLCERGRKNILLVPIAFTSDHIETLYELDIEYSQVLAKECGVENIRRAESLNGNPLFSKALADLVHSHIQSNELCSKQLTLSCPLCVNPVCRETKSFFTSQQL

The target of assay [7] is T3, EKC/KEOPS complex subunit TP53RK (Homo sapiens, UniProt Q96S44).
T3 sequence (Q96S44 whole entry): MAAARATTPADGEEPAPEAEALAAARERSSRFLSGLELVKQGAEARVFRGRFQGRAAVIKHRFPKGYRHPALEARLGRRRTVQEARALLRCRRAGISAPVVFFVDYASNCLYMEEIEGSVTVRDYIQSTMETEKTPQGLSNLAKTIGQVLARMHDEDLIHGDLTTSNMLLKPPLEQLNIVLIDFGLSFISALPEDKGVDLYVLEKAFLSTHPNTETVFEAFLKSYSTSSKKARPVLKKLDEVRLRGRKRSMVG

Assay [8] deals with Structural maintenance of chromosomes protein 2 (Homo sapiens, UniProt O95347).
Structural maintenance of chromosomes protein 2, sequence (O95347 whole entry): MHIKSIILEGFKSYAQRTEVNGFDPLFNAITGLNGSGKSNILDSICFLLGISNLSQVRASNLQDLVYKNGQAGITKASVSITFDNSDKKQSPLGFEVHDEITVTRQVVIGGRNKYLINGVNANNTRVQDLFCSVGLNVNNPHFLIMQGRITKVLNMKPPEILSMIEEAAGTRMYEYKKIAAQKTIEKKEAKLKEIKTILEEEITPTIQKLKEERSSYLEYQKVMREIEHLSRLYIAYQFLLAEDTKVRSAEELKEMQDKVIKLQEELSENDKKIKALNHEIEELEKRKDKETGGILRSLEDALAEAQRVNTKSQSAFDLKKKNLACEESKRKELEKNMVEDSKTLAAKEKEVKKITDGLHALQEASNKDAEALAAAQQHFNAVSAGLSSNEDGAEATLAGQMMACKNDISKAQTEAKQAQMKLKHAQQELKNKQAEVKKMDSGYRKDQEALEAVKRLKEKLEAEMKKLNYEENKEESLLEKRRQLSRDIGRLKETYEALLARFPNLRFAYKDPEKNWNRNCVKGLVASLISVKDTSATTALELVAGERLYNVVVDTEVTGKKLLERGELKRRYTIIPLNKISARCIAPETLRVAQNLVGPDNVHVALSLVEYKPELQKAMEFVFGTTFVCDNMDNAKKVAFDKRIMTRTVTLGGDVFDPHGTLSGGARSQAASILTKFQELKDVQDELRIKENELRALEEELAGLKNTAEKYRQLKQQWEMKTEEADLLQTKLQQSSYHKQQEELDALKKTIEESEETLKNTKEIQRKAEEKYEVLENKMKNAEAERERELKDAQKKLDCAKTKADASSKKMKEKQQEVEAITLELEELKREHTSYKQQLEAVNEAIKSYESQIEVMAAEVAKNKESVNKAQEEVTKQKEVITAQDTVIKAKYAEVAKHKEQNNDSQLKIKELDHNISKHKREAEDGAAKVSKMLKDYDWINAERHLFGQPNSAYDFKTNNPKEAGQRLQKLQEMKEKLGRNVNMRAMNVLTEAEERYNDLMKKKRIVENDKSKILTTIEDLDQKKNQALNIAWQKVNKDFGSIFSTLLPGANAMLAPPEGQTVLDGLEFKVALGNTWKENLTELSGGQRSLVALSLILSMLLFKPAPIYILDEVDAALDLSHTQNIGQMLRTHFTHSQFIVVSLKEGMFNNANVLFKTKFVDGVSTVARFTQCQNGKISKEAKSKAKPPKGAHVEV
Assay [9] deals with T4, Serine/threonine-protein kinase Nek2 (Homo sapiens, UniProt P51955).
T4 sequence (P51955 whole entry): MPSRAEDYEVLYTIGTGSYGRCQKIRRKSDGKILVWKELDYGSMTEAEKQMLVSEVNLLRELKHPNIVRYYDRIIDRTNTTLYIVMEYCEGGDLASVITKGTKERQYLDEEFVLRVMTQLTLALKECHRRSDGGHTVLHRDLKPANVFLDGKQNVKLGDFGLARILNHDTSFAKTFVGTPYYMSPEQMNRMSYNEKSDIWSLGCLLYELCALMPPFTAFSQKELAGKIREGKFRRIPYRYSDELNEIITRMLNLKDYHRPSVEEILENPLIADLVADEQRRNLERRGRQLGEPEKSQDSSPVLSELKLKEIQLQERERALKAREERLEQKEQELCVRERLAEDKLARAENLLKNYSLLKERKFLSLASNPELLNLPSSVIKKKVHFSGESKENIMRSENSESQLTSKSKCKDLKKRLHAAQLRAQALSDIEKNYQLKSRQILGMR

The target in assay [10] is Tyrosine-protein kinase HCK (Homo sapiens, UniProt P08631).
Tyrosine-protein kinase HCK, sequence (P08631 whole entry): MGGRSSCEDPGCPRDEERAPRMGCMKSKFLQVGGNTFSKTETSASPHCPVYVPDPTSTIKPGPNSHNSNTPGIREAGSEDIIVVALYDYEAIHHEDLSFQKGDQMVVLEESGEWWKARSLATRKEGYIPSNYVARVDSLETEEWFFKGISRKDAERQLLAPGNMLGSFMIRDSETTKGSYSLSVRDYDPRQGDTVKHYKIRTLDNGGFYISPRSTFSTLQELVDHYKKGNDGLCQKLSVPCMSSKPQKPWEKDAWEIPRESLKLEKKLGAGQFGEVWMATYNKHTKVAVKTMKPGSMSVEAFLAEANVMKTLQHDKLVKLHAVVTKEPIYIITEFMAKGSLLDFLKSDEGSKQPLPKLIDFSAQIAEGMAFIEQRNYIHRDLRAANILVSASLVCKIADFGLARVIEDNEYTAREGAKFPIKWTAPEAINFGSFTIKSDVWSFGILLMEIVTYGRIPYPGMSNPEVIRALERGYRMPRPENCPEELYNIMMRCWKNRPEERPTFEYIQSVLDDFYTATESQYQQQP
The target in assay [11] is NADH dehydrogenase [ubiquinone] 1 alpha subcomplex subunit 13 (Homo sapiens, UniProt Q9P0J0).
NADH dehydrogenase [ubiquinone] 1 alpha subcomplex subunit 13, sequence (Q9P0J0 whole entry, one chain of several): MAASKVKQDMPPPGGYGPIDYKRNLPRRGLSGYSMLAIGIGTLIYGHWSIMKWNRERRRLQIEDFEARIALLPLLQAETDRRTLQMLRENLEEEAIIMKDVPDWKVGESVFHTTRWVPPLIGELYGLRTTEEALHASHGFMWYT
In assay [12] the target is Putative heat shock protein HSP 90-beta 2 (Homo sapiens, UniProt Q58FF8).
Putative heat shock protein HSP 90-beta 2, sequence (Q58FF8 whole entry): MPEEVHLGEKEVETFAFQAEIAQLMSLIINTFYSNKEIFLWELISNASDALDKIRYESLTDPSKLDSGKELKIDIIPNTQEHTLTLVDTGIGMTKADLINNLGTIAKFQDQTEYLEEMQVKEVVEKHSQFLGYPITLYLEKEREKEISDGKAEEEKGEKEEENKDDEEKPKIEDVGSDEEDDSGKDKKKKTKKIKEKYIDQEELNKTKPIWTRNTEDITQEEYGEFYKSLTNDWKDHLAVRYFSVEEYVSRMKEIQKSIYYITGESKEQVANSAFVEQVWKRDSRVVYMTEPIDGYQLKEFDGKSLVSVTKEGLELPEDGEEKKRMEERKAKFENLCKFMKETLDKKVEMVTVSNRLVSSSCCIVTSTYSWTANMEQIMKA

Activity calls are given as the source filed them. For most assays here, no stated cut-off is given here; in the data, actives have a measured Kd and inactives only a lower limit.

Mitogen-activated protein kinase 3, sequence (P27361 whole entry): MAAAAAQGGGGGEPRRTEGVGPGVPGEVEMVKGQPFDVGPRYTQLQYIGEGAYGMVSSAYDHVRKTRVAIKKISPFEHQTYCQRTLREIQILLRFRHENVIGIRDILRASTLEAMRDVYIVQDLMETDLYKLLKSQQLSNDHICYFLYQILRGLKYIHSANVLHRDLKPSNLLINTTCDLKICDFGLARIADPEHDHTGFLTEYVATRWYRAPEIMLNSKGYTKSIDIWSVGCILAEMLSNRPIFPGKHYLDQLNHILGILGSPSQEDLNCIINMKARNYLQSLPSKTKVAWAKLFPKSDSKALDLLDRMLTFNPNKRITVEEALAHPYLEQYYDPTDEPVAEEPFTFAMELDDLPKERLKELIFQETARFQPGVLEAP
Tyrosine-protein kinase BTK, sequence (Q06187 whole entry): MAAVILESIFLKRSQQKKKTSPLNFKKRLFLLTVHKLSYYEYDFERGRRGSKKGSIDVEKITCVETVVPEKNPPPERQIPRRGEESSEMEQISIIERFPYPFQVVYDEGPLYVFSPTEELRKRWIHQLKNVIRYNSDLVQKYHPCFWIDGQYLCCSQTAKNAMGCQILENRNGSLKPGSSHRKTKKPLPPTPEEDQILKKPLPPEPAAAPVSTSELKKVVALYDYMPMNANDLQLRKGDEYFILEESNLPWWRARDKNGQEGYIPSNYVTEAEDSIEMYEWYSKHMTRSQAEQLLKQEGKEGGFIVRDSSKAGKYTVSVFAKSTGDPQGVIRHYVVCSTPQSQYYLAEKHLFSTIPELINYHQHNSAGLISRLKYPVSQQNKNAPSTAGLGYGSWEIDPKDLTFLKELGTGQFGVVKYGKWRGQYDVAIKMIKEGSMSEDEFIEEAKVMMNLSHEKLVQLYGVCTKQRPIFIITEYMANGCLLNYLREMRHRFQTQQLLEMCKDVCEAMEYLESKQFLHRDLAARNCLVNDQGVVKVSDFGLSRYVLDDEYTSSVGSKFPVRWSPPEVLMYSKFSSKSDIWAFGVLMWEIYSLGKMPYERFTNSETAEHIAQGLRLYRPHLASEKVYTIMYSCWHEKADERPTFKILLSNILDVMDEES

As for `O=C(NOC[C@H](O)CO)c1ccc(F)c(F)c1Nc1ccc(I)cc1F` [MIRDAMETINIB], the Kd (in assay [1]; in assay [2]; on Ephrin type-B receptor 4; in assay [3]; in assay [4]; in [5]) was > 30 µM (inactive) each time. The Kd in [6], in assay [7], in assay [8], in assay [9], in assay [10] and in assay [11] was > 30 µM (inactive) throughout. In assay [12], the Kd was > 30 µM (inactive).
In the case of `COc1cc2nccc(Oc3ccc(NC(=O)C4(C(=O)Nc5ccc(F)cc5)CC4)cc3)c2cc1OC` [CABOZANTINIB], the Kd (in [1]; in assay [2]; at Ephrin type-B receptor 4; in assay [3]; in assay [4]; in assay [5]) was > 30 µM (inactive) each time. Also, the Kd was 2.63 µM (active) in assay [6]; > 30 µM (inactive) in [7]; > 30 µM (inactive) in assay [8]; > 30 µM (inactive) in assay [9]; 1.1 µM (active) in assay [10]; > 30 µM (inactive) in assay [11]. Besides, the Kd in assay [12] was > 30 µM (inactive).

The values are drawn from ChEMBL document CHEMBL3991601, “The target landscape of clinical kinase drugs” (Science, 2017).
